Results on 1 substance are retold here after patent US20030203864A1, “Treatment of cancer” (priority 2002, published 2003).

“Also recorded” adds a separate entry of the source.

What all share (type): cell-based, human
For one series, the system named is HepG2 cells. Kind of series: HepG2 cell proliferation (Coulter counter). The settings on record: 0.75 μM DNAzyme, 5% FBS, 3 days. The method, then: HepG2 cells were routinely grown in DMEM, pH 7.4, containing 10% fetal calf serum supplemented with antibiotics. The cells were trypsinized, resuspended in growth medium (to 10,000 cells/200 μl) and 200 μl transferred into sterile 96 well titre plates. Two days subsequently, 180 μl of the culture supernatant was removed, the cells were washed with PBS, pH 7.4, and refed with 180 μl of serum free media. After 6 h, the first transfection of DNAzyme (2 μg/200 μl wall, 0.75 μM final) was performed in tubes containing serum free media using FuGENE6 at a ratio of 1:3 (μg:μl). After 15 min incubation at room temperature, 180 μl of the culture supernantant was replaced with 180 μl of the transfection mix, After 24 h, 180 μl of the supernatant was replaced with 180 μl of new transfection mix, but this time in 5% FBS media. After 3 days, the cells were washed in PBS, pH 7.4, and resuspended by trypsinization in 100 μl trypsin-EDTA. The cells were shaken for approximately 5 min to ensure the cells were in suspension. The entire suspension was placed into 10 ml of Isoton II. That all the cells were transferred was ensured by pipetting Isoton II solution from tubes back into wells several times. Using Isoton II only, background cell number was determined. Each sample was counted three times and used to calculate mean counts and standard errors of each mean.

Another series relates to EGR-1. Kind of series: Western blot of EGR-1 in HepG2 cells.
Chain of EGR-1 (P18146 whole entry): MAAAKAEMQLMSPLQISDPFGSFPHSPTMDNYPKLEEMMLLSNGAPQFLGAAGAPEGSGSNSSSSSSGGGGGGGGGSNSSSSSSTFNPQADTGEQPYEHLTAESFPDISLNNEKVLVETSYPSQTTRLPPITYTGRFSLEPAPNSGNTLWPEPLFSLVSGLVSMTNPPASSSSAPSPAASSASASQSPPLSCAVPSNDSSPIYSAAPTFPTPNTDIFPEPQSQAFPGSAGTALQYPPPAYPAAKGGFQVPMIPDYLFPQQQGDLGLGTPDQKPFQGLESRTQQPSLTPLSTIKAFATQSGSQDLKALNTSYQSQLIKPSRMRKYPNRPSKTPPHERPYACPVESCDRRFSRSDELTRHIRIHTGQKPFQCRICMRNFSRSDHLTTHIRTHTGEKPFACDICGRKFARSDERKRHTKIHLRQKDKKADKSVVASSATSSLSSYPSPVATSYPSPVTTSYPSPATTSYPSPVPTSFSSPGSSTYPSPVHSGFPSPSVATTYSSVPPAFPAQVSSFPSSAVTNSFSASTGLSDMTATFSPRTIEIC
The test system of a further series is HMEC-1 cells. The series is described as follows: HMEC-1 proliferation assay (Coulter counter). To be noted: 0.4 μM DNA enzyme. Here is the method: HMEC-1 culture and proliferation assay. SV40-transformed HMEC-1 cells were grown in MCDB 131 medium with EGF (10 ng/ml) and hydrocortisone (1 μg/ml) supplements and 10% FBS. […] The cells were quantitated by Coulter counter, 24 h after the addition of serum.

As to “DzA: DNAzyme targeting human EGR-1 mRNA (arms hybridize to nts 189-207), 5′-caggggacaGGCTAGCTACAACGAcgttgcggg (DNA CAGGGGACAGGCTAGCTACAACGACGTTGCGGG; DNA, backbone and methylation of C not given here)”, the “serum-stimulated HepG2 cell proliferation” value in the series on HepG2 cells is recorded as “almost completely suppressed; also recorded: inhibited”. In the series with EGR-1, the “EGR-1 expression in HepG2 cells” value is on record as “strongly inhibited”. The “HMEC-1 replication (total cell counts)” value in the series with HMEC-1 cells was “inhibited”.
